Assay: Physical form of choline-based ionic liquids at room temperature
Format: physicochemical
Description: Several ionic liquids comprising choline as a cation and various anions were synthesized. […] For anions not miscible with the aqueous choline bicarbonate solution, a co-solvent, such as ethanol, was added until a homogenous mixture formed. The mixture was stirred at room temperature until CO2 evolution ceased. Solvent was removed by rotary evaporation at 60° C. for 20 minutes, and each product was dried in a vacuum oven for 48 hours at 60° C.

[1] = cation:anion 1:1, room temperature
[2] = cation:anion 1:2, room temperature
[3] = cation:anion 2:1, room temperature

| Compound | Physical Form (Ratios Listed as Cation:Anion) [1] | Physical Form (Ratios Listed as Cation:Anion) [2] | Physical Form (Ratios Listed as Cation:Anion) [3] | further results |
| --- | --- | --- | --- | --- |
| CC(CCC(C(=O)O)C(C)CC(C)(C)C)CC(C)(C)C (centres unmarked) [2-(4,4-Dimethyl-2-pentanyl)-5,7,7-trimethyloctanoic Acid] | Solid at 1:1 |  |  |  |
| CC(C)Cc1ccc(C(C)C(=O)O)cc1 (centres unmarked) [2-(4-Isobutylphenyl)propionic Acid] | Solid at 1:1 |  |  |  |
| CCCCCCCCC(CCCCCC)C(=O)O (centres unmarked) [2-Hexyldecanoic Acid] | Liquid at 1:1 |  |  |  |
| O=C(O)CNC(=O)c1ccccc1O [2-Hydroxyhippuric Acid] | Solid at 1:1 |  |  |  |
| CC(C)CCCC(C)CC(=O)O (centres unmarked) [3,7-Dimethyloctanoic Acid] | Solid at 1:1, 1:2 | Solid at 1:1, 1:2 |  |  |
| CCC(C)CCC(=O)O (centres unmarked) [4-Methylhexanoic Acid] | Liquid at 1:1, 1:2 | Liquid at 1:1, 1:2 |  |  |
| CCCCC(C)CCC(=O)O (centres unmarked) [4-Methyloctanoic Acid] | Liquid | Solid |  |  |
| CC(C)CCC(=O)O [4-Methylvaleric Acid] |  | Liquid at 1:2 |  |  |
| O=C(O)C1CC2C=CC1C2 (centres unmarked) [5-Norbornene-2-carboxylic Acid] | Solid at 1:1 |  |  |  |
| O=C(O)CCCC[C@@H]1CCSS1 [(R)-α-Lipoic Acid] | Solid at 2:1, 1:1, 1:2, | Solid at 2:1, 1:1, 1:2, | Solid at 2:1, 1:1, 1:2, |  |
| CC(C)C1=CC2=CC[C@@H]3[C@](C)(CCC[C@@]3(C)C(=O)O)[C@H]2CC1 [Abietic Acid] | Solid at 1:1 |  |  |  |
| CC(=O)O [Acetic Acid] | Liquid at 2:1, 1:1, 1:2 | Liquid at 2:1, 1:1, 1:2 | Liquid at 2:1, 1:1, 1:2 |  |
| CCCCC/C=C\C/C=C\C/C=C\C/C=C\CCCC(=O)O [Arachidonic Acid] | Solid at 1:1 |  |  |  |
| O=C(O)/C=C/c1ccc(O)c(O)c1 [Caffeic Acid] | Solid at 1:1 |  |  |  |
| O=C(O)CC(O)(CC(=O)O)C(=O)O [Citric Acid] | Solid |  | Liquid | Physical Form (Ratios Listed as Cation:Anion) (cation:anion 3:1, room temperature): Liquid; Physical Form (Ratios Listed as Cation:Anion) (cation:anion 4:1, room temperature): Liquid |
| C/C=C/C(=O)O [Crotonic Acid] | Liquid at 1:1, 1:2 | Liquid at 1:1, 1:2 |  |  |
| O=C(O)[C@H](O)[C@@H](O)[C@@H](O)[C@H](O)CO [D-(+)-Galactonic Acid] | Solid at 1:1 |  |  |  |
| CCCCCCCCCC(=O)O [Decanoic Acid] | Solid | Solid | Liquid | Physical Form (Ratios Listed as Cation:Anion) (cation:anion 1:1, room temperature, listed as decanoic acid): solid; Physical Form (Ratios Listed as Cation:Anion) (cation:anion 1:2, room temperature, listed as decanoic acid): solid; Physical Form (Ratios Listed as Cation:Anion) (cation:anion 2:1, room temperature, listed as decanoic acid): liquid; appearance and physical form (room temperature, ratio as in label): waxy solid |
| CC/C=C\C/C=C\C/C=C\C/C=C\C/C=C\CCCC(=O)O [Eicosapentanoic Acid (EPA)] | Solid at 1:1 |  |  |  |
| O=c1oc2c(O)c(O)cc3c(=O)oc4c(O)c(O)cc1c4c23 [Ellagic Acid] | Solid at 1:1 |  |  |  |

| Compound | Physical Form (Ratios Listed as Cation:Anion) [1] | Physical Form (Ratios Listed as Cation:Anion) [2] | Physical Form (Ratios Listed as Cation:Anion) [3] | further results |
| --- | --- | --- | --- | --- |
| O=C(O)/C=C/C(=O)O [Fumaric Acid] | Solid |  | Liquid |  |
| CC(C)=CCC/C(C)=C/C(=O)O [Geranic Acid] | Liquid at 1:1, 1:2 | Liquid at 1:1, 1:2 |  |  |
| O=C(O)CCCC(=O)O [Glutaric Acid] | Liquid at 2:1, 1:1 |  | Liquid at 2:1, 1:1 |  |
| O=C(O)CO [Glycolic Acid] | Liquid at 2:1, 1:1 |  | Liquid at 2:1, 1:1 |  |
| CCCCCC(=O)O [Hexanoic Acid] | Liquid at 1:1, 1:2 | Liquid at 1:1, 1:2 |  |  |
| O=C1O[C@H]([C@@H](O)CO)C(O)=C1O [L-Ascorbic Acid] | Solid at 1:1 |  |  |  |
| N[C@@H](CCC(=O)N[C@@H](CS)C(=O)NCC(=O)O)C(=O)O [L-Glutathione reduced] |  |  | Solid at 2:1 |  |
| CC(O)C(=O)O (centres unmarked) [Lactic Acid] | Liquid at 1:1, 1:2 | Liquid at 1:1, 1:2 |  |  |
| CCCCCCCCCCCC(=O)O [Lauric Acid] | Solid at 1:1, 1:2 | Solid at 1:1, 1:2 |  |  |
| CC(=O)CCC(=O)O [Levulinic Acid] | Liquid at 1:1, 1:2 | Liquid at 1:1, 1:2 |  |  |
| O=C(O)/C=C\C(=O)O [Maleic Acid] | Liquid at 2:1, 1:1 |  | Liquid at 2:1, 1:1 |  |
| O=C(O)CC(O)C(=O)O (centres unmarked) [Malic Acid] | Liquid at 2:1, 1:1 |  | Liquid at 2:1, 1:1 |  |
| O=C(O)CC(=O)O [Malonic Acid] | Liquid at 1:1 |  |  |  |
| O=C(O)C(O)c1ccccc1 (centres unmarked) [Mandelic Acid] | Liquid at 1:1, 1:2 | Liquid at 1:1, 1:2 |  |  |
| C/C(=C\C(=O)O)C(=O)O [Mesaconic Acid] | Solid |  | Liquid |  |
| CCCCCCCCC(=O)O [Nonanoic Acid] | Solid at 1:1, 1:2 | Solid at 1:1, 1:2 |  |  |
| CCCCCCCC/C=C\CCCCCCCC(=O)O [Oleic Acid] | Solid at 1:1, 1:2 | Solid at 1:1, 1:2 |  |  |
| C=C(C)[C@@H]1CC=C(C(=O)O)CC1 [Perillic Acid] | Solid at 1:1 |  |  |  |
| O=P(O)(O)O [Phosphoric Acid] | Solid | Liquid | Liquid |  |
| O=C(O)CCCCCC(=O)O [Pimelic Acid] | Liquid at 2:1, 1:1 |  | Liquid at 2:1, 1:1 |  |
